Measured values as given in US8802597B2, “Herbicidal pyrimidines” (E I du Pont de Nemours and Company, priority 2003, dated 2014).
Like-named read-outs stand apart in the source and are kept apart here.

What was measured:
Test in all cases: Test C pre/postemergence
Type in all cases: in vivo
[1] = system: common ragweed (Ambrosia elatior); details: Ambrosia artemisiifolia, pre-emergence, Preemergence, scale 0 to 100, 0 no effect, 100 complete control, read-out: Plant response rating, Ragweed
Method in brief: (§1)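 Percent control is a visual rating (0 none, 100 complete) taken against untreated plants after 12 to 14 days of greenhouse growth. Applications were made preemergence to seeded pots and postemergence to plants at the 1- to 4-leaf stage, in a non-phytotoxic surfactant-containing solvent.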

[2] = system: cocklebur (Xanthium strumarium); details: Xanthium strumarium; for pest or weed control at 31 g/ha: 31 g ai/ha; for pest or weed control at 62 g/ha: 62 g ai/ha; for pest or weed control at 125 g/ha: 125 g ai/ha
Method in brief: as §1

[3] = system: woolly cupgrass (Eriochloa villosa); details: Eriochloa villosa; for pest or weed control at 31 g/ha: 31 g ai/ha; for pest or weed control at 62 g/ha: 62 g ai/ha
Method in brief: as §1

[4] = system: Surinam grass (Brachiaria decumbens); details: Urochloa decumbens; for pest or weed control at 31 g/ha: 31 g ai/ha; for pest or weed control at 62 g/ha: 62 g ai/ha
Method in brief: as §1

[5] = system: corn (Zea mays); details: Zea mays; for Corn plant response rating (crop injury, 0 = no effect, 100 = complete kill) at 31 g/ha: 31 g ai/ha; for Corn plant response rating (crop injury, 0 = no effect, 100 = complete kill) at 62 g/ha: 62 g ai/ha; for Corn plant response rating (crop injury, 0 = no effect, 100 = complete kill) at 125 g/ha: 125 g ai/ha
Method in brief: as §1

[6] = system: kochia (Kochia scoparia); details: Bassia scoparia; for pest or weed control at 31 g/ha: 31 g ai/ha; for pest or weed control at 62 g/ha: 62 g ai/ha; for pest or weed control at 125 g/ha: 125 g ai/ha
Method in brief: as §1

[7] = post-emergence, Postemergence, read-out: Plant response rating (scale of 0 to 100), Cocklebur
[8] = pre-emergence, Preemergence, scale 0 to 100, 0 no effect, 100 complete control, read-out: Plant response rating, Cocklebur
[9] = post-emergence, Postemergence, read-out: Plant response rating (scale of 0 to 100), Cupgrass, Woolly
[10] = pre-emergence, Preemergence, scale 0 to 100, 0 no effect, 100 complete control, read-out: Plant response rating, Cupgrass, Woolly
[11] = post-emergence, Postemergence, read-out: Plant response rating (scale of 0 to 100), Surinam Grass
[12] = pre-emergence, Preemergence, scale 0 to 100, 0 no effect, 100 complete control, read-out: Plant response rating, Surinam Grass
[13] = post-emergence, Postemergence, read-out: Plant response rating (scale of 0 to 100), Corn
[14] = pre-emergence, Preemergence, scale 0 to 100, 0 no effect, 100 complete control, read-out: Plant response rating, Corn
[15] = post-emergence, Postemergence, read-out: Plant response rating (scale of 0 to 100), Kochia
[16] = pre-emergence, Preemergence, scale 0 to 100, 0 no effect, 100 complete control, read-out: Plant response rating, Kochia

Q: How did the pest or weed control at 16 g/ha ([1]; 16 g ai/ha) turn out when `Nc1nc(C2CC2)nc(C(=O)OCc2ccccc2)c1Cl` [Compound 78, phenylmethyl 6-amino-5-chloro-2-cyclopropyl-4-pyrimidinecarboxylate] was run?
A: 10%

Q: And the pest or weed control at 31 g/ha ([1]; 31 g ai/ha)?
A: 65%

Q: And the pest or weed control at 62 g/ha ([1]; 62 g ai/ha)?
A: 80%

Q: And the pest or weed control at 31 g/ha [2, 7]?
A: 90%

Q: And the pest or weed control at 62 g/ha [2, 7]?
A: 100%

Q: What about the pest or weed control at 125 g/ha ([2]; post-emergence, Postemergence, scale 0 to 100 (0 no effect, 100 complete control), read-out: Cocklebur plant response rating) of the same compound?
A: 100%

Q: What about the pest or weed control at 250 g/ha ([2]; post-emergence, Postemergence, 250 g ai/ha, scale 0 to 100, read-out: Plant response rating, Cocklebur) of the same compound?
A: 100%

Q: And the pest or weed control at 16 g/ha ([2]; pre-emergence, Preemergence, 16 g ai/ha, scale 0 to 100, 0 no effect, 100 complete control, read-out: Plant response rating, Cocklebur)?
A: 55%

Q: What about the pest or weed control at 31 g/ha [2, 8] of the same compound?
A: 70%

Q: And the pest or weed control at 62 g/ha [2, 8]?
A: 90%

Q: And the pest or weed control at 125 g/ha ([2]; pre-emergence, Preemergence, scale 0 to 100, read-out: Plant response rating, Cocklebur)?
A: 90%

Q: What about the pest or weed control at 31 g/ha [3, 9] of the same compound?
A: 50%

Q: And the pest or weed control at 62 g/ha [3, 9]?
A: 55%

Q: And the pest or weed control at 250 g/ha ([3]; post-emergence, Postemergence, 250 g ai/ha, scale 0 to 100, read-out: Plant response rating, Cupgrass, Woolly)?
A: 90%

Q: And the pest or weed control at 16 g/ha ([3]; pre-emergence, Preemergence, 16 g ai/ha, scale 0 to 100, 0 no effect, 100 complete control, read-out: Plant response rating, Cupgrass, Woolly)?
A: 0%

Q: What about the pest or weed control at 31 g/ha [3, 10] of the same compound?
A: 0%

Q: What about the pest or weed control at 62 g/ha [3, 10] of the same compound?
A: 0%

Q: What about the pest or weed control at 125 g/ha ([3]; pre-emergence, Preemergence, 125 g ai/ha, scale 0 to 100, read-out: Plant response rating, Cupgrass, Woolly) of the same compound?
A: 10%

Q: And the pest or weed control at 125 g/ha ([4]; post-emergence, Postemergence, 125 g ai/ha, scale 0 to 100 (0 no effect, 100 complete control), read-out: Surinam Grass plant response rating)?
A: 55%

Q: And the pest or weed control at 31 g/ha [4, 11]?
A: 50%

Q: And the pest or weed control at 62 g/ha [4, 11]?
A: 55%

Q: What about the pest or weed control at 250 g/ha ([4]; post-emergence, Postemergence, 250 g ai/ha, scale 0 to 100, read-out: Plant response rating, Surinam Grass) of the same compound?
A: 90%

Q: What about the pest or weed control at 16 g/ha ([4]; pre-emergence, Preemergence, 16 g ai/ha, scale 0 to 100, 0 no effect, 100 complete control, read-out: Plant response rating, Surinam Grass) of the same compound?
A: 0%

Q: What about the pest or weed control at 31 g/ha [4, 12] of the same compound?
A: 0%

Q: What about the pest or weed control at 62 g/ha [4, 12] of the same compound?
A: 0%

Q: What about the Corn plant response rating (crop injury, 0 = no effect, 100 = complete kill) at 31 g/ha [5, 13] of the same compound?
A: 40%

Q: And the Corn plant response rating (crop injury, 0 = no effect, 100 = complete kill) at 62 g/ha [5, 13]?
A: 40%

Q: What about the Corn plant response rating (crop injury, 0 = no effect, 100 = complete kill) at 125 g/ha ([5]; post-emergence, Postemergence, scale 0 to 100 (0 no effect, 100 complete control), read-out: Corn plant response rating) of the same compound?
A: 40%

Q: And the Corn plant response rating (crop injury, 0 = no effect, 100 = complete kill) at 250 g/ha ([5]; post-emergence, Postemergence, 250 g ai/ha, scale 0 to 100)?
A: 40%

Q: And the Corn plant response rating (crop injury, 0 = no effect, 100 = complete kill) at 16 g/ha ([5]; pre-emergence, Preemergence, 16 g ai/ha, scale 0 to 100, 0 no effect, 100 complete control, read-out: Plant response rating, Corn)?
A: 0%

Q: And the Corn plant response rating (crop injury, 0 = no effect, 100 = complete kill) at 31 g/ha [5, 14]?
A: 0%

Q: What about the Corn plant response rating (crop injury, 0 = no effect, 100 = complete kill) at 62 g/ha [5, 14] of the same compound?
A: 20%

Q: What about the Corn plant response rating (crop injury, 0 = no effect, 100 = complete kill) at 125 g/ha ([5]; pre-emergence, Preemergence, scale 0 to 100, read-out: Plant response rating, Corn) of the same compound?
A: 40%

Q: What about the pest or weed control at 31 g/ha [6, 15] of the same compound?
A: 90%

Q: And the pest or weed control at 62 g/ha [6, 15]?
A: 90%

Q: What about the pest or weed control at 125 g/ha ([6]; post-emergence, Postemergence, scale 0 to 100 (0 no effect, 100 complete control), read-out: Kochia plant response rating) of the same compound?
A: 95%

Q: And the pest or weed control at 250 g/ha ([6]; post-emergence, Postemergence, 250 g ai/ha, scale 0 to 100, read-out: Plant response rating, Kochia)?
A: 95%

Q: And the pest or weed control at 16 g/ha ([6]; pre-emergence, Preemergence, 16 g ai/ha, scale 0 to 100, 0 no effect, 100 complete control, read-out: Plant response rating, Kochia)?
A: 70%

Q: What about the pest or weed control at 31 g/ha [6, 16] of the same compound?
A: 80%

Q: And the pest or weed control at 62 g/ha [6, 16]?
A: 100%

Q: What about the pest or weed control at 125 g/ha ([6]; pre-emergence, Preemergence, scale 0 to 100, read-out: Plant response rating, Kochia) of the same compound?
A: 100%
